Experimental findings from patent US5302399A, “Slow-releasing pharmaceuticals prepared with alginic acid” (Snow Brand Milk Products Co., Ltd., priority 1988, dated 1994) are described below.

A short description of one data set: in vivo. The arrangement: species or system Male beagle dogs. The following applies: dog, po. From the text:
Water was given ad libitum.
Water was given ad libitum during the test period.
In this test, alginic acid gel beads prepared using the low viscosity alginic acid gel beads (IL2, Kimizu Chemicals) were used.

The next data set in a line: clinical. Also noted: species or system healthy human adults. The following applies: in vivo, po.

What is called AUC is concentration integrated over time. The MRT is the average time that molecules of a dose stay in the body. As usually defined, the Tmax is the time from dosing to the highest level. Consider `CC(C)NCC(O)COc1cccc2[nH]ccc12` (stereo not shown) [Pindolol powder, pindolol], for which, in the data set “in vivo” (2.5 mg/kg), the AUC at 6 h was found to be 238 ng·h/mL and the MRT at 6 h was determined as 1.74 h. Moreover, in the data set “in vivo” (5 mg/kg), the AUC at 12 h stood at 311 ng·h/mL and the MRT at 12 h came out at 1.98 h. Besides, in “clinical” (human), the MRT was determined as 3.82 ± 0.32 h and the Tmax is about 1 h. In “clinical”, the VRT worked out at 7.44 ± 0.54 h^2.
